Assay results published in patent publication US8318769B2, “Substituted sulfonamide compounds” (Gruenethal GmbH, priority 2008, dated 2012).

Columns and labels:
[1] = target: T1, human bradykinin 1 receptor (B1R) (Homo sapiens, UniProt P46663); experiment: FLIPR Ca2+ assay, B1R antagonism, human; format: cell-based; details: 10 μM test substance; CHO K1 cells with human B1R gene (hB1R cells); Lys-Des-Arg9-bradykinin at EC80; % inhibition compared with the maximum achievable inhibition; read-out: B1R antagonism, human [10 μM] % inhibition
T1 construct: expressed in transfected cells
T1 sequence (P46663 1-353): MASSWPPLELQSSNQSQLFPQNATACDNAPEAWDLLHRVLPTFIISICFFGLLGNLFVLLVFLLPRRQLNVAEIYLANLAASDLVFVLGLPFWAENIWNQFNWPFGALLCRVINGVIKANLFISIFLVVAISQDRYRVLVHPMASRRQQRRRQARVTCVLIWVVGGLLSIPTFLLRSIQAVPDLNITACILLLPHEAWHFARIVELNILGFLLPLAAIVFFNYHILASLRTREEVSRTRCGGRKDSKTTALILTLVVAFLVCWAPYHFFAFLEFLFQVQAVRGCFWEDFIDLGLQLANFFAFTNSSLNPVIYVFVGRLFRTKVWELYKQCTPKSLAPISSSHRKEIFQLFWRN
Method: The agonistic or antagonistic action of substances can be quantified on the bradykinin 1 receptor (B1R) of the human and rat species with ectopically expressing cell lines (CHO K1 cells) and with the aid of a Ca^2+-sensitive dyestuff (Fluo-4) in a fluorescent imaging plate reader (FLIPR). The figure in % activation is based on the Ca^2+ signal after addition of Lys-Des-Arg^9-bradykinin (0.5 nM) or Des-Arg^9-bradykinin (100 nM). Antagonists lead to a suppression of the Ca^2+ inflow after addition of the agonist. % inhibition compared with the maximum achievable inhibition is stated.
The agonistic or antagonistic action of substances can be determined on the bradykinin 1 receptor (B1R) of the human and rat species with the following assay. In accordance with this assay, the Ca^2+ inflow through the channel is quantified with the aid of a Ca^2+-sensitive dyestuff (type Fluo-4, Molecular Probes Europe BV, Leiden, Holland) in a fluorescent imaging plate reader (FLIPR, Molecular Devices, Sunnyvale, USA).
Chinese hamster ovary cells (CHO K1 cells) transfected stably with the human B1R gene (hB1R cells) or the B1R gene of the rat (rB1R cells) are used. For functional studies, these cells are plated out on black 96-well plates with a clear base (BD Biosciences, Heidelberg, Germany or Greiner, Frickenhausen, Germany) in a density of 20,000-35,000 cells/well. The cells are left overnight at 37° C. and 5% CO2 in culture medium (hB1R cells: Nutrient Mixture Ham's F12, Gibco Invitrogen GmbH, Karlsruhe, Germany or DMEM, Sigma-Aldrich, Taufkirchen, Germany; rB1R cells: D-MEM/F12, Gibco Invitrogen GmbH, Karlsruhe, Germany) with 10 vol. % FBS (foetal bovine serum, Gibco Invitrogen GmbH, Karlsruhe, Germany or PAN Biotech GmbH, Aidenbach, Germany).
On the following day, the cells are loaded for 60 min at 37° C. with 2.13 μM Fluo-4 (Molecular Probes Europe BV, Leiden, Holland) in HBSS buffer (Hank's buffered saline solution, Gibco Invitrogen GmbH, Karlsruhe, Germany) with 2.5 mM probenecid (Sigma-Aldrich, Taufkirchen, Germany) and 10 mM HEPES (Sigma-Aldrich, Taufkirchen, Germany). The plates are then washed 2× with HBSS buffer, and HBSS buffer which additionally contains 0.1% BSA (bovine serum albumin; Sigma-Aldrich, Taufkirchen, Germany), 5.6 mM glucose and 0.05% gelatine (Merck KGaA, Darmstadt, Germany) is added. After a further incubation of 20 minutes at room temperature, the plates are inserted into the FLIPR for the Ca^2+ measurement.
Alternatively, the plates are washed with buffer A (15 mM HEPES, 80 mM NaCl, 5 mM KCl, 1.2 mM CaCl2, 0.7 mM MgSO4, 2 g/l glucose, 2.5 mM probenecid), buffer A is added and the plates are loaded with 2.5 μM Fluo-4 and 0.025% Pluronic F127 (Sigma-Aldrich, Taufkirchen, Germany). Thereafter, the cells are washed 2× with buffer A and incubated for 30 minutes with buffer A, which additionally contains 0.05% BSA and 0.05% gelatine, at room temperature and thereafter inserted into the FLIPR for the Ca^2+ measurement.
The Ca^2+-dependent fluorescence is measured here before and after addition of substances (λex=488 nm, λem=540 nm). Quantification is by measurement of the highest fluorescence intensity (FC, fluorescence counts) over time.
The FLIPR protocol consists of 2 additions of substance. Test substances (10 μM) are first pipetted on to the cells and the Ca^2+ inflow is compared with the control (hB1R: Lys-Des-Arg^9-bradykinin >=50 nM; rB1R: Des-Arg^9-bradykinin 10 μM). This gives the figure in % activation based on the Ca^2+ signal after addition of Lys-Des-Arg^9-bradykinin (>=50 nM) or Des-Arg^9-bradykinin (10 μM).
After incubation for 10-20 minutes, Lys-Des-Arg^9-bradykinin (hB1R) or Des-Arg^9-bradykinin (rB1R) in the concentration of the EC80 is applied and the inflow of Ca^2+ is likewise determined. Antagonists lead to a suppression of the Ca^2+ inflow. % inhibition compared with the maximum achievable inhibition is calculated. […]

[2] = target: T2, bradykinin 1 receptor (B1R) of the rat (Rattus norvegicus, UniProt P97583); experiment: FLIPR Ca2+ assay, B1R antagonism, rat; format: cell-based; details: CHO-K1, 10 μM test substance; CHO K1 cells with rat B1R gene (rB1R cells); Des-Arg9-bradykinin at EC80; % inhibition compared with the maximum achievable inhibition; read-out: B1R antagonism, rat [10 μM] % inhibition
T2 construct: expressed in transfected cells
T2 sequence (P97583 1-337): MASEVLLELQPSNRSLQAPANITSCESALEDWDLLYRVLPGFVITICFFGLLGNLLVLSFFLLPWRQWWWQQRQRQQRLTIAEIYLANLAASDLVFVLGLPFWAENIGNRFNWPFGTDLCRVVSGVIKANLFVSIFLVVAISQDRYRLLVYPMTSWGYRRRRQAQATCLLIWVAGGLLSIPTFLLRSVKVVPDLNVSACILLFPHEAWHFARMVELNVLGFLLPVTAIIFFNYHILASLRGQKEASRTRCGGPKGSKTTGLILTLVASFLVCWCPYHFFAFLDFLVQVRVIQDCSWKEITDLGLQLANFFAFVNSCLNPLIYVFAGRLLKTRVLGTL
Summary of the method: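 Antagonism is given as % of maximum achievable suppression of agonist-evoked Ca2+ influx, measured by Fluo-4 peak fluorescence in FLIPR. Stable hB1R or rB1R CHO K1 lines received 10 μM compound for 10-20 min before EC80 Lys-Des-Arg9-bradykinin (human) or Des-Arg9-bradykinin (rat).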

Compound | inhibition at 10 µM [1] | inhibition at 10 µM [2]
COc1cc(C)c(S(=O)(=O)N2CCCCC2COCC(=O)N2CCC(OCCN3CCN(C)CC3)(c3cccnc3)CC2)c(C)c1 (stereo not shown) [Example 28, 2-((1-(4-methoxy-2,6-dimethylphenylsulfonyl)piperidin-2-yl)methoxy)-1-(4-(2-(4-methylpiperazin-1-yl)ethoxy)-4-(pyridin-3-yl)piperidin-1-yl)ethanone] | 97% | 102%
O=C(CC1CCCCN1S(=O)(=O)c1cccc(C(F)(F)F)c1)N1CCC(OCCN2CCCCC2)(c2cccnc2)CC1 (stereo not shown) [Example 10, 1-(4-(2-(piperidin-1-yl)ethoxy)-4-(pyridin-3-yl)piperidin-1-yl)-2-(1-(3-(trifluoromethyl)phenylsulfonyl)piperidin-2-yl)ethanone] | 104% | 44%
O=C(CC(NS(=O)(=O)c1ccc2ccccc2c1)c1ccccc1)N1CCC(OCCCN2CCCCC2)(c2cccnc2)CC1 (stereo not shown) [Example 27, N-(3-oxo-1-phenyl-3-(4-(3-(piperidin-1-yl)propoxy)-4-(pyridin-3-yl)piperidin-1-yl)propyl)naphthalene-2-sulfonamide] | 83% | 101%
COc1cc(C)c(S(=O)(=O)N(C)CCOCC(=O)N2CCC(OCCN3CCCCC3)(c3cccnc3)CC2)c(C)c1 [Example 15, 4-methoxy-N,2,6-trimethyl-N-(2-(2-oxo-2-(4-(2-(piperidin-1-yl)ethoxy)-4-(pyridin-3-yl)piperidin-1-yl)ethoxy)ethyl)-benzenesulfonamide] | 104% | 102%
O=C(CC1CCCCN1S(=O)(=O)c1cccc(C(F)(F)F)c1)N1CCC(OCCCN2CCCCC2)(c2cccnc2)CC1 (stereo not shown) [Example 23, 1-(4-(3-(piperidin-1-yl)propoxy)-4-(pyridin-3-yl)piperidin-1-yl)-2-(1-(3-(trifluoromethyl)phenylsulfonyl)piperidin-2-yl)ethanone] | 57% | 46%
O=C(CC(NS(=O)(=O)c1ccc2ccccc2c1)c1ccccc1)N1CCC(OCCN2CCCC2)(c2cccnc2)CC1 (stereo not shown) [Example 26, N-(3-oxo-1-phenyl-3-(4-(pyridin-3-yl)-4-(2-(pyrrolidin-1-yl)ethoxy)piperidin-1-yl)propyl)naphthalene-2-sulfonamide] | 87% | 91%

The next lines start with the values.

inhibition at 10 µM [1] | inhibition at 10 µM [2] | Compound
100% | 97% | O=C(COCC1CCCCN1S(=O)(=O)c1ccccc1C(F)(F)F)N1CCC(OCCN2CCCC2)(c2cccc(F)c2)CC1 (stereo not shown) [Example 118, 1-[4-(3-fluorophenyl)-4-(2-pyrrolidin-1-yl-ethoxy)-piperidin-1-yl]-2-[[1-[[2-(trifluoromethyl)-phenyl]sulfonyl]-piperidin-2-yl]-methoxy]-ethanone]
98% | 97% | COc1cc(C)c(S(=O)(=O)N2CCCC[C@H]2COCC(=O)N2CCC(OCCN3CCCC3)(c3cccc(F)c3)CC2)c(C)c1 [Example 51, (S)-1-(4-(3-fluorophenyl)-4-(2-(pyrrolidin-1-yl)ethoxy)piperidin-1-yl)-2-((1-(4-methoxy-2,6-dimethylphenylsulfonyl)piperidin-2-yl)methoxy)ethanone]
99% | 101% | COc1cc(C)c(S(=O)(=O)N(C)CCOCC(=O)N2CCC(OCCN3CCN(C)CC3)(c3cccnc3)CC2)c(C)c1 [Example 29, 4-methoxy-N,2,6-trimethyl-N-(2-(2-(4-(2-(4-methylpiperazin-1-yl)ethoxy)-4-(pyridin-3-yl)piperidin-1-yl)-2-oxoethoxy)ethyl)benzenesulfonamide]
86% | 67% | Cc1cc(S(=O)(=O)N2CCCCC2CCC(=O)N2CCC(OCCCN3CCCC3)(c3cccnc3)CC2)c(C)cc1Cl (stereo not shown) [Example 43, 3-(1-(4-chloro-2,5-dimethylphenylsulfonyl)piperidin-2-yl)-1-(4-(pyridin-3-yl)-4-(3-(pyrrolidin-1-yl)propoxy)piperidin-1-yl)propan-1-one]
100% | 97% | COc1cc(C)c(S(=O)(=O)N(C)CCOCC(=O)N2CCC(OCCN3CCCC3)(c3cccc(F)c3)CC2)c(C)c1 [Example 81, N-[2-[2-[4-(3-fluorophenyl)-4-(2-pyrrolidin-1-yl-ethoxy)-piperidin-1-yl]-2-oxo-ethoxy]-ethyl]-4-methoxy-N,2,6-trimethyl-benzenesulfonic acid amide]
100% | 99% | COc1cc(C)c(S(=O)(=O)N2CCCCC2COCC(=O)N2CCC(OCCN3CCCC3)(c3cccc(F)c3)CC2)c(C)c1 (stereo not shown) [Example 83, 1-[4-(3-fluorophenyl)-4-(2-pyrrolidin-1-yl-ethoxy)-piperidin-1-yl]-2-[[1-[(4-methoxy-2,6-dimethyl-phenyl)sulfonyl]-piperidin-2-yl]-methoxy]-ethanone]
100% | 102% | COc1cc(C)c(S(=O)(=O)N2CCCCC2COCCC(=O)N2CCC(OCCN3CCCC3)(c3cccnc3)CC2)c(C)c1 (stereo not shown) [Example 119, 3-[[1-[(4-methoxy-2,6-dimethyl-phenyl)sulfonyl]-piperidin-2-yl]-methoxy]-1-[4-pyridin-3-yl-4-(2-pyrrolidin-1-yl-ethoxy)-piperidin-1-yl]-propan-1-one]
100% | 103% | COc1cc(C)c(S(=O)(=O)N2c3ccccc3CCC2COCC(=O)N2CCC(OCCN3CCCC3)(c3ccncc3)CC2)c(C)c1 (stereo not shown) [Example 103, 2-[[1-[(4-methoxy-2,6-dimethyl-phenyl)sulfonyl]-1,2,3,4-tetrahydro-quinolin-2-yl]-methoxy]-1-[4-pyridin-4-yl-4-(2-pyrrolidin-1-yl-ethoxy)-piperidin-1-yl]-ethanone]
